Our source for the Z-SCORE values is PMC5653977 (EMBO Molecular Medicine, 2017).

Counter-ions that a name gives are not always drawn. *1 amine or outer side, *2 acyl side, *3 side chain or, on linkers, in order; H or OH if unused. Where a SMILES comes first, the peptide text is derived from it. Bridges are numbered along the chain shown (N, C = ends). Roman numbers before positions name the chains, in order. [ ]: non-standard residue; d: D form. Actinocin(9to1) = Cc1c2oc3c(C)ccc(C(=O)[*:1])c3nc-2c(C(=O)[*:2])c(N)c1=O; NMeV = CN[C@H](C(=O)O)C(C)C; Sar = CNCC(=O)O

The first assay concerns NRG1-ERBB4 signaling. The assay is described as follows: Nrg1-ERBB4-PIK3R1 split TEV co-culture compound screen of the NIH Clinical Collection. Format: cell-based, human. Particulars: NIH Clinical Collection NCC-003 raw data; compounds ranked by Z-score; 'flagged' given instead of a Z-score.
Turning to `Cc1c2oc3c(C)ccc(C(=O)N[C@@H]4C(=O)N[C@H](C(C)C)C(=O)N5CCC[C@H]5C(=O)N(C)CC(=O)N(C)[C@@H](C(C)C)C(=O)O[C@@H]4C)c3nc-2c(C(=O)N[C@@H]2C(=O)N[C@H](C(C)C)C(=O)N3CCC[C@H]3C(=O)N(C)CC(=O)N(C)[C@@H](C(C)C)C(=O)O[C@@H]2C)c(N)c1=O` [DACTINOMYCIN] (I: T[dV]P[Sar][NMeV] / II: T[dV]P[Sar][NMeV]; ester I:1-I:C, II:1-II:C; linker I:N-II:N via Actinocin(9to1)), the Z-SCORE entry is reported as “flagged”.
For `O=c1c(-c2ccccc2)c1-c1ccccc1` [diphenylcyclopropenone], the Z-SCORE entry is on record as “flagged”.
Take `C[C@H]1[C@H](OC(=O)CCC(=O)O)O[C@@H]2O[C@@]3(C)CC[C@H]4[C@H](C)CC[C@@H]1[C@@]24OO3` [ARTESUNATE]: the Z-SCORE entry is “flagged”.
`c1ccc(-c2ccc(C(c3ccccc3)n3ccnc3)cc2)cc1` (centres unmarked) [Bifonazole, reference compound] displayed a Z-SCORE of -3.45.
On the same count and under the same terms, the value for `COC(=O)Nc1nc2cc(C(=O)c3ccc(F)cc3)ccc2[nH]1` [FLUBENDAZOLE] was “flagged”.

The assay is the same for the next values; noted with them: compound screen of the NIH Clinical Collection, sheet raw data NCC-003; compounds ranked by Z-score.
With `CC#C[C@]1(O)CC[C@H]2[C@@H]3CCC4=CC(=O)CCC4=C3[C@@H](c3ccc(N(C)C)cc3)C[C@@]21C` [MIFEPRISTONE], the Z-SCORE worked out at 0.02.
As to `O=C1CN=C(c2ccccc2)c2cc([N+](=O)[O-])ccc2N1` [Nitrazepam], the Z-SCORE is given as -0.23.
For the molecule `NC1=NC(=O)C(c2ccccc2)O1` (centres unmarked) [Pemoline], the Z-SCORE is -0.71.
Molecule `COc1ccc2[nH]c([S+]([O-])Cc3ncc(C)c(OC)c3C)nc2c1` (centres unmarked) [OMEPRAZOLE] showed a Z-SCORE of -0.26.
Take `C#C[C@]1(O)CC[C@H]2[C@@H]3CCC4=CC(=O)CC[C@@H]4[C@H]3CC[C@@]21CC` [LEVONORGESTREL]: the Z-SCORE is given as -1.05.
On the same count and under the same terms, the value for `COc1ccc2c(c1)c(CC(=O)O)c(C)n2C(=O)c1ccc(Cl)cc1` [Indomethacin] was 0.08; that for `CN(C)CCCC1(c2ccc(F)cc2)OCc2cc(C#N)ccc21` (centres unmarked) [Citalopram hydrobromide] was -0.45; that for `O=C(O[C@@H]1Cc2c(O)cc(O)cc2O[C@@H]1c1cc(O)c(O)c(O)c1)c1cc(O)c(O)c(O)c1` [Epigallocatechin gallate] was 1.36.
On to `C[C@@H]1C[C@H]2[C@@H]3CCC4=CC(=O)C=C[C@]4(C)[C@@]3(F)[C@@H](O)C[C@]2(C)[C@H]1C(=O)CO` [DESOXIMETASONE], for which the Z-SCORE was -0.5.
In turn, `Cc1onc(-c2ccccc2)c1-c1ccc(S(N)(=O)=O)cc1` [VALDECOXIB] gave a Z-SCORE of 0.19.
On the same count and under the same terms, the value for `CC[C@@]1(O)C(=O)OCc2c1cc1n(c2=O)Cc2cc3c(CN(C)C)c(O)ccc3nc2-1` [Topotecan HCl, reference compound] was 7.97; that for `CCC1=C(C)CN(C(=O)NCCc2ccc(S(=O)(=O)NC(=O)N[C@H]3CC[C@H](C)CC3)cc2)C1=O` [GLIMEPIRIDE] was 0.02.
Take `CC[C@H]1OC(=O)[C@H](C)[C@@H](O[C@H]2C[C@@](C)(OC)[C@@H](O)[C@H](C)O2)[C@H](C)[C@@H](O[C@@H]2O[C@H](C)C[C@H](N(C)C)[C@H]2O)[C@](C)(OC)C[C@@H](C)C(=O)[C@H](C)[C@@H](O)[C@]1(C)O` [CLARITHROMYCIN]: the Z-SCORE stood at 0.55.
The molecule `O=C(NCCO[N+](=O)[O-])c1cccnc1` [NICORANDIL] gave a Z-SCORE of -0.09.
Molecule `O=C1c2c(O)cc(O)cc2OC(c2ccc(O)c(O)c2)C1O` (stereo not drawn) [TAXIFOLIN-(+)] registered a Z-SCORE of 1.25.
In turn, `CCCCC(=O)N(Cc1ccc(-c2ccccc2-c2nnn[nH]2)cc1)[C@H](C(=O)O)C(C)C` returned a Z-SCORE of -0.23.
Molecule `COc1cc2c(cc1OC)C(=O)C(CC1CCN(Cc3ccccc3)CC1)C2` (centres unmarked) [Donepezil] had a Z-SCORE of 0.
`CCCc1nc(C)c2c(=O)[nH]c(-c3cc(S(=O)(=O)N4CCN(CC)CC4)ccc3OCC)nn12.O=C(O)CC(O)(CC(=O)O)C(=O)O` [Vardenafil citrate, reference compound]: the Z-SCORE came to 5.88.
`CCN(CC)CCOC(=O)C(O)(c1ccccc1)c1ccccc1` [BENACTYZINE HYDROCHLORIDE] had a Z-SCORE of 2.48.
`CC(=O)NCCCCCCNC(C)=O` registered a Z-SCORE of 1.08.
The same measure, in the same setting: the same measure for `c1ccc2c3c([nH]c2c1)CNCC3` [TRYPTOLINE]: 0.19; for `C[C@]12C=CC(=O)C=C1CC[C@@H]1[C@@H]2[C@@H](O)C[C@@]2(C)[C@H]1CC[C@]2(O)C(=O)COC(=O)CCC(=O)[O-].[Na+]`: 0.67.
Same read-out and setting: the same measure for `CN(C)CCCSc1ccccc1NC(=O)/C=C/c1ccccc1` [Cinanserin]: -0.77.
For `CC(=O)O[C@H]1C[C@@H]2CC[C@@H]3[C@H](CC[C@@]4(C)[C@H]3C[C@H]([N+]3(C)CCCCC3)[C@@H]4OC(C)=O)[C@@]2(C)C[C@@H]1N1CCCCC1` [VECURONIUM BROMIDE], the Z-SCORE is on record as 0.97.
Still for that read-out and setting: the same measure for `COc1ccccc1OCC(O)CN1CCN(CC(=O)Nc2c(C)cccc2C)CC1` (centres unmarked) [Ranolazine dihydrochloride]: 0.21; for `CN(C)CCC=C1c2ccccc2COc2ccccc21` [Doxepin]: 2.16; for `Nc1nc2ccc(Cl)cc2c2nc(-c3ccco3)nn12` [CGS 15943, reference compound]: 6.59.
Still for that read-out and setting: the value for `C[C@]12CCC(=O)C[C@@H]1CC[C@@H]1[C@@H]2CC[C@@]2(C)[C@H]1CC[C@]2(C)O` [Mestanolone] was 1.19; that for `O=C1N(c2ccccc2)c2ccccc2C1(Cc1ccncc1)Cc1ccncc1` was -0.78.
`O=C1c2c(O)cc(O)cc2OC(c2ccc(O)c(O)c2)C1O` (racemic) [TAXIFOLIN-(+/-)] yielded a Z-SCORE of -0.12.
`C[N+]1(CCC(C(N)=O)(c2ccccc2)c2ccccc2)CCCCC1` [FENPIVERINIUM BROMIDE] came in with a Z-SCORE of -0.58.
On to `COc1ccnc(C[S+]([O-])c2nc3cc(OC(F)F)ccc3[n-]2)c1OC.[Na+]` (centres unmarked) [PANTOPRAZOLE SODIUM SALT], for which the Z-SCORE is given as 1.42.

Still in this assay, the particulars now being: compounds at 10 μM, 24 h; PC12 split TEV assay cells co-cultured with Nrg1-expressing PC12 cells; analysed with cellHTS2.
`CC(C)NCC(O)c1ccc(O)c(O)c1` (centres unmarked) [Isuprel, reference compound]: the Z-SCORE is -0.93.
`Oc1c(Cl)cc(Cl)c(Cl)c1Cc1c(O)c(Cl)cc(Cl)c1Cl` [Hexachlorophene, reference compound]: the Z-SCORE result was “flagged”.
With `C[C@]12CCC(=O)C=C1CC[C@@H]1[C@@H]2[C@@H](O)C[C@@]2(C)[C@H]1CC[C@]2(O)C(=O)COC(=O)CCC(=O)O` [HYDROCORTISONE HEMISUCCINATE, reference compound], the Z-SCORE was -1.64.
The molecule `Cc1onc(-c2c(Cl)cccc2Cl)c1C(=O)N[C@@H]1C(=O)N2[C@@H]1SC(C)(C)[C@@H]2C(=O)O` [DICLOXACILLIN SODIUM, reference compound] displayed a Z-SCORE of 0.28.
On to `CC(=O)NS(=O)(=O)c1ccc(N)cc1` [Sulfacetamide, reference compound], for which the Z-SCORE worked out at 0.29.
On to `Nc1nc(N)c2nc(-c3ccccc3)c(N)nc2n1` [Triamterene, reference compound], for which the Z-SCORE was found to be 0.78.
Still for that read-out and setting: the value for `COc1c(N2CCNC(C)C2)c(F)cc2c(=O)c(C(=O)O)cn(C3CC3)c12` (centres unmarked) [Gatifloxacin, reference compound] was 1.07; that for `c1ccc(-c2ccc(C(c3ccccc3)n3ccnc3)cc2)cc1` (centres unmarked) [Bifonazole, reference compound] was -3.45.
Turning to `Cc1cccc(CN2CCN(C(c3ccccc3)c3ccc(Cl)cc3)CC2)c1.Cl` (centres unmarked) [Duremesin, reference compound], the Z-SCORE was -0.76.
`CC[C@@]1(O)C(=O)OCc2c1cc1n(c2=O)Cc2cc3c(CN(C)C)c(O)ccc3nc2-1` [Topotecan HCl, reference compound] displayed a Z-SCORE of 7.97.
The molecule `C#CCN(C)[C@H](C)Cc1ccccc1.Cl` [DEPRENALIN, reference compound] displayed a Z-SCORE of 0.31.
In turn, `CC(=O)Nc1nnc(S(N)(=O)=O)s1` [Acetazolamide, reference compound] displayed a Z-SCORE of 0.2.
As to `CCCC(CCC)C(=O)O` [Valproic Acid, reference compound], the Z-SCORE is -1.05.
With `Nc1cc(N2CCCCC2)nc(N)[n+]1[O-]` [Minoxidil, reference compound], the Z-SCORE worked out at 0.25.
Consider `CCCc1nc(C)c2c(=O)[nH]c(-c3cc(S(=O)(=O)N4CCN(CC)CC4)ccc3OCC)nn12.O=C(O)CC(O)(CC(=O)O)C(=O)O` [Vardenafil citrate, reference compound], for which the Z-SCORE came to 5.88.
With `CCC1(c2ccc(N)cc2)CCC(=O)NC1=O` (centres unmarked) [Aminoglutethimide, reference compound], the Z-SCORE was -0.62.
Molecule `CC(=O)CC(c1ccccc1)c1c(O)c2ccccc2oc1=O` (centres unmarked) [WARFARIN SODIUM, reference compound] returned a Z-SCORE of -0.02.
With `Cc1noc(NS(=O)(=O)c2ccc(N)cc2)c1C` [Sulfisoxazole, reference compound], the Z-SCORE was determined as 1.21.
The same measure, in the same setting: the same measure for `C[C@H]1C[C@H]2[C@@H]3CCC4=CC(=O)C=C[C@]4(C)[C@@]3(F)[C@@H](O)C[C@]2(C)[C@@]1(O)C(=O)CO` [Betamethasone, reference compound]: 3.82; for `C[C@H]1O[C@@H](O[C@H]2[C@@H](O)C[C@H](O[C@H]3[C@@H](O)C[C@H](O[C@H]4CC[C@@]5(C)[C@H](CC[C@@H]6[C@@H]5C[C@@H](O)[C@]5(C)[C@@H](C7=CC(=O)OC7)CC[C@]65O)C4)O[C@@H]3C)O[C@@H]2C)C[C@H](O)[C@@H]1O` [DIGOXIN, reference compound]: -1.73.
For the molecule `CC1(C)O[C@@H]2C[C@H]3[C@@H]4C[C@H](F)C5=CC(=O)C=C[C@]5(C)[C@H]4[C@@H](O)C[C@]3(C)[C@]2(C(=O)CO)O1` [FluniSOLIDe, reference compound], the Z-SCORE is recorded as 2.03.
In turn, `CN(C)CCC=C1c2ccccc2COc2ccccc21` [DOXEPIN HYDROCHLORIDE, reference compound] had a Z-SCORE of 1.31.
`CCC(=O)OCC(=O)[C@@]1(OC(=O)CC)[C@@H](C)C[C@H]2[C@@H]3CCC4=CC(=O)C=C[C@]4(C)[C@@]3(Cl)[C@@H](O)C[C@@]21C` [BECLOMETHASONE DIPROPIONATE, reference compound]: the Z-SCORE is 0.81.
`Cc1ccc(Cl)c(Nc2ccccc2C(=O)O)c1Cl` [Meclomen, reference compound]: the Z-SCORE is recorded as -0.25.
`Oc1ncnc2[nH]ncc12` [Allopurinol, reference compound] registered a Z-SCORE of 0.21.
